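Five compound concentrations were applied to cells in 96-well plates for 48 hours; endpoints were derived by simple linear interpolation of the resulting dose-response curve. GI50 marks 50% less growth.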 Activity calls are given as the source filed them. Rule as the data show it: active = GI50 up to about 1.1 µM and inactive = higher.
Columns and labels:
Experiment in all cases: inhibition of tumour cell growth, NCI panel, 48 h
786-0 = system: 786-0
A498 = system: A498
CAKI-1 = system: CAKI-1
HCT-15 = system: HCT-15
HT-29 = system: HT-29
IGROV-1 = system: IGROV-1
M14 = system: M14
MCF7 = system: MCF7
NCI-H23 = system: NCI-H23
OVCAR-3 = system: OVCAR-3
OVCAR-8 = system: OVCAR-8
PC-3 = system: PC-3
RPMI-8226 = system: RPMI-8226
SF-295 = system: SF-295
SF-539 = system: SF-539
SN12C = system: SN12C
SR = system: SR
TK-10 = system: TK-10
U-251 = system: U-251
UACC-62 = system: UACC-62

Measured: GI50

CCCCI(O)OS(=O)(=O)c1ccc(C)cc1
inactive: 786-0 > 100 µM | A498 > 100 µM | CAKI-1 > 100 µM | HT-29 > 100 µM | IGROV-1 28.2 µM | M14 > 100 µM | MCF7 > 100 µM | NCI-H23 > 100 µM | OVCAR-3 > 100 µM | OVCAR-8 > 100 µM | PC-3 > 100 µM | RPMI-8226 50.6 µM | SF-295 > 100 µM | SF-539 > 100 µM | SN12C > 100 µM | SR 55.3 µM | TK-10 > 100 µM | U-251 > 100 µM | UACC-62 89.1 µM
> 100 µM: HCT-15

Cc1cc(=O)oc2cc(OC(=O)N(C)C)c(Cl)cc12
inactive: 786-0 87.5 µM | A498 > 100 µM | CAKI-1 > 100 µM | HT-29 > 100 µM | IGROV-1 > 100 µM | M14 83.9 µM | MCF7 > 100 µM | NCI-H23 > 100 µM | OVCAR-3 > 100 µM | OVCAR-8 > 100 µM | PC-3 > 100 µM | RPMI-8226 > 100 µM | SF-295 > 10 µM | SF-539 55.3 µM | SN12C > 100 µM | SR > 100 µM | TK-10 > 100 µM | U-251 53 µM | UACC-62 21.6 µM
> 100 µM: HCT-15

C=C1CC(c2ccc(OCCCN3C(=O)c4ccccc4C3=O)c(OC)c2)OC1=O (stereo not given)
active: MCF7 0.218 µM | RPMI-8226 0.849 µM | SF-539 0.303 µM | SR 0.973 µM
2.71 µM: HCT-15
inactive: 786-0 4.1 µM | A498 1.77 µM | CAKI-1 3.66 µM | HT-29 2.58 µM | IGROV-1 2.56 µM | M14 4.3 µM | NCI-H23 4.82 µM | OVCAR-3 2.21 µM | OVCAR-8 2.93 µM | PC-3 12.4 µM | SF-295 11.2 µM | SN12C 6.82 µM | TK-10 2.39 µM | U-251 7.98 µM | UACC-62 2.07 µM

N=C(N)NCCCS(=O)(=O)Nc1ccc(Nc2c3ccccc3nc3cc([N+](=O)[O-])ccc23)cc1
inactive: 786-0 19.2 µM | A498 17.5 µM | CAKI-1 40.8 µM | HT-29 16.9 µM | IGROV-1 18.4 µM | M14 16.4 µM | MCF7 2.53 µM | NCI-H23 4.65 µM | OVCAR-3 15.6 µM | OVCAR-8 20.6 µM | PC-3 11.7 µM | RPMI-8226 3.8 µM | SF-295 20.3 µM | SF-539 20.3 µM | SN12C 4.83 µM | SR 5.42 µM | TK-10 21.2 µM | U-251 4.05 µM | UACC-62 12.1 µM
> 85.9 µM: HCT-15

Brc1ccc2nc(-c3cccs3)nc(N3CCN(c4ccccc4)CC3)c2c1
> 100 µM: HCT-15
inactive: 786-0 > 100 µM | A498 > 100 µM | CAKI-1 > 100 µM | HT-29 > 100 µM | IGROV-1 > 100 µM | M14 > 100 µM | MCF7 > 100 µM | NCI-H23 > 100 µM | OVCAR-3 > 100 µM | OVCAR-8 > 100 µM | PC-3 > 100 µM | RPMI-8226 > 100 µM | SF-295 > 100 µM | SF-539 > 100 µM | SN12C > 100 µM | SR > 100 µM | TK-10 > 100 µM | U-251 > 100 µM | UACC-62 > 100 µM

N#C/N=C(/NCc1ccccc1)N(Cc1ccccc1)Cc1ccccc1
inactive: 786-0 23.2 µM | A498 > 10 µM | CAKI-1 28.5 µM | HT-29 > 10 µM | IGROV-1 17.4 µM | M14 23.4 µM | MCF7 36.1 µM | NCI-H23 19.8 µM | OVCAR-3 22.6 µM | OVCAR-8 20.2 µM | PC-3 28.2 µM | RPMI-8226 22.9 µM | SF-295 15.3 µM | SF-539 23.7 µM | SN12C 25.2 µM | SR 24.8 µM | TK-10 24.8 µM | U-251 24.7 µM | UACC-62 8.13 µM
20.7 µM: HCT-15

COc1cccc(C(=O)C(O)c2cccc(OC)c2OC)c1OC (stereo not given)
inactive: 786-0 > 100 µM | A498 > 100 µM | CAKI-1 > 100 µM | HT-29 > 100 µM | IGROV-1 > 100 µM | M14 > 100 µM | MCF7 > 100 µM | NCI-H23 > 100 µM | OVCAR-3 > 100 µM | OVCAR-8 > 100 µM | PC-3 > 100 µM | RPMI-8226 > 100 µM | SF-295 > 100 µM | SF-539 > 100 µM | SN12C > 100 µM | SR > 100 µM | TK-10 > 100 µM | U-251 > 100 µM | UACC-62 > 100 µM
> 100 µM: HCT-15

O=c1[nH]nc(Cc2ccc(Cl)cc2)n1/N=C\CC/C=N\n1c(Cc2ccc(Cl)cc2)n[nH]c1=O
inactive: 786-0 18.5 µM | A498 > 69.5 µM | CAKI-1 > 56 µM | HT-29 > 26.2 µM | IGROV-1 9.93 µM | M14 32.8 µM | MCF7 21.6 µM | NCI-H23 32.3 µM | OVCAR-3 > 100 µM | OVCAR-8 14 µM | PC-3 > 51.9 µM | RPMI-8226 > 33.3 µM | SF-295 24.4 µM | SF-539 8.49 µM | SN12C 59.2 µM | SR 3.1 µM | TK-10 > 100 µM | U-251 16.4 µM | UACC-62 10.9 µM
35.2 µM: HCT-15

COc1cc(C2c3cc4c(c(O)c3C(=O)C3CCC(=O)N32)OCO4)cc(OC)c1OC (stereo not given)
48.8 µM: HCT-15
inactive: 786-0 92.5 µM | A498 39.9 µM | CAKI-1 47.3 µM | HT-29 42.9 µM | IGROV-1 61.9 µM | M14 42.1 µM | MCF7 77.1 µM | NCI-H23 > 100 µM | OVCAR-3 68.1 µM | OVCAR-8 > 100 µM | PC-3 38.8 µM | RPMI-8226 92.7 µM | SF-295 36.6 µM | SF-539 46.9 µM | SN12C > 100 µM | SR 44.8 µM | TK-10 67.5 µM | U-251 > 100 µM | UACC-62 30.1 µM

O=c1cc(/C=C/c2ccc(O)c(O)c2)cc(/C=C/c2ccc(O)c(O)c2)o1
inactive: 786-0 14.3 µM | A498 11 µM | CAKI-1 10.9 µM | HT-29 11.4 µM | IGROV-1 12.9 µM | M14 10.5 µM | MCF7 4.05 µM | NCI-H23 14.9 µM | OVCAR-3 7.71 µM | OVCAR-8 18.6 µM | PC-3 9.16 µM | RPMI-8226 5.02 µM | SF-295 9.44 µM | SF-539 8.15 µM | SN12C 9.71 µM | SR 1.24 µM | TK-10 17.5 µM | U-251 6.95 µM | UACC-62 8.39 µM
10.4 µM: HCT-15

O/N=N/c1ccc2ccccc2n1
inactive: 786-0 > 100 µM | A498 72.9 µM | CAKI-1 > 100 µM | HT-29 > 100 µM | IGROV-1 > 100 µM | M14 > 100 µM | MCF7 > 100 µM | NCI-H23 > 100 µM | OVCAR-3 > 100 µM | OVCAR-8 > 100 µM | PC-3 > 100 µM | RPMI-8226 > 100 µM | SF-295 > 100 µM | SF-539 > 100 µM | SN12C > 100 µM | SR > 100 µM | TK-10 > 100 µM | U-251 > 100 µM | UACC-62 > 100 µM
> 100 µM: HCT-15

CN(C)CCNc1ccc2nnn3c4ccc(Cl)cc4c(=O)c1c23
inactive: 786-0 2.42 µM | A498 2.8 µM | CAKI-1 2.25 µM | HT-29 1.88 µM | IGROV-1 3.65 µM | M14 4.94 µM | MCF7 5.01 µM | NCI-H23 5.09 µM | OVCAR-3 5.6 µM | OVCAR-8 1.7 µM | PC-3 2.76 µM | RPMI-8226 2.92 µM | SF-295 2.85 µM | SF-539 4.78 µM | SN12C 2.36 µM | SR 1.33 µM | TK-10 5 µM | U-251 1.33 µM | UACC-62 4.89 µM
2.16 µM: HCT-15

CC(NC(=O)/C(C#N)=C/c1ccc2[nH]ccc2c1)c1ccccc1 (stereo not given)
inactive: 786-0 16.7 µM | A498 16.5 µM | CAKI-1 29.3 µM | HT-29 17.5 µM | IGROV-1 17.2 µM | M14 20.6 µM | MCF7 20.9 µM | NCI-H23 19.4 µM | OVCAR-3 24.9 µM | OVCAR-8 21.3 µM | PC-3 20.3 µM | RPMI-8226 21.6 µM | SF-295 17.1 µM | SF-539 19.8 µM | SN12C 18.7 µM | SR 24.2 µM | TK-10 17.9 µM | U-251 15.9 µM | UACC-62 15.3 µM
12.5 µM: HCT-15

From ChEMBL document CHEMBL1201862, “PubChem BioAssay data set” (2004)
